What was measured:
[1] = Drug blood levels after intracolonic injection (LC MS MS); format: in vivo, Wistar rats; settings: intracolonic in PBS
Protocol: Wistar rats, females of approximately 200-300 g (Simonsen, Gilroy, Calif.), were anesthetized, their abdomens were shaved, midline incisions were made, and a one-half inch section of the ascending colon in each animal was tied off with sutures. Taxol and cyclosporin (5 mg/kg) were injected as solutions in a 1:1 v/v Cremophor EL:ethanol mixture, whereas equivalent molar amounts of the r7 conjugates were injected in PBS. In all cases, the volume injected was approximately 500λ. The colon was placed back into the cavity, and the incision was closed using sutures.
(§1) Clotting was inhibited by transferring the blood to glass tubes containing 100λ of 0.5% EDTA, and the blood was frozen.
Either taxol or cyclosporin was extracted from the whole blood using a modification of literature procedures. Briefly, whole blood (100λ) was transferred to a screw capped glass tube containing five mls of diethyl ether. The sample was vortexed vigorously for two minutes, centrifuged, and frozen in dry ice/methanol. The ethereal layer was transferred to another glass tube and the ether was evaporated. […] Samples were placed into a Perkin-Elmer series 200 autosampler and sequencially injected onto a C18 reverse column at 70° C. connected to a Shimadzu HPLC system, eluted with 70% methanol, 30% aqueous ammonium formate buffer, and the effluent was analyzed on a PE Sciex API 3000 tandem mass spectrometer.

[2] = Half-life / release of conjugate in buffer; format: physicochemical; settings: buffer; PBS, pH 7.4 at 37° C.; read-out: half life (converted)
[3] = tested on: squamous epithelia of the oral cavity; test: Penetration into squamous epithelia of the oral cavity; format: in vivo, mouse; settings: fifteen minutes
From the text: To determine whether CellGate transporters could enter the squamous epithelia of the oral cavity, mice were anesthetized with Nembutal, their heads tipped to one side and solutions of the biotinylated peptides were placed in their mouths. After fifteen minutes the liquid was removed by pipette.
The capacity of the transporters to enter the squamous epithelial layers of the oral cavity was examined. A mouse was anesthetized, its head was tipped so that a solution of biotinylated r9 could be administered. The animal was kept in this position for fifteen minutes, at which time it was sacrificed, and the tongue and cheek were dissected, frozen, sectioned, stained with streptavidin-fluorescein, and counterstained with propidium iodide.

[4] = tested on: epithelia of the gastrointestinal tract; test: Gastrointestinal absorption protocol (histology); format: in vivo, mouse
Protocol: Experiments were performed on 8- to 10-week-old female Swiss Webster mice purchased from Taconic (Germantown, N.Y.). Mice were anesthetized with Nembutal and a midline incision was made along the abdomen. Intestines were measured, tied off at both ends of the desired section with sutures, and biotinylated peptides were injected into the lumen (approximately 100λ/inch). After a fifteen minute incubation, the tissue was removed and the lumen was gently washed with PBS.
Immediately following incubation with biotinylated peptides, the anesthetized rodents were sacrificed by cervical dislocation and the tied off sections of the GI tract were removed. The lumens of the various sections were filled with OCT using a plastic tipped syringe, immersed in OCT filled boats, and snap frozen in a 2-methyl-butane/dry ice solution. Frozen sections were allowed to warm slightly and 2 mm thick sagital cuts were made using a steel razor blade. The cuts were placed into OCT molds and snap frozen in a 2-methyl-butane/dry ice solution. Sections (5 μm) were cut on the cryostat, fixed in acetone at 4° C. for 10 minute, and allowed to air dry. After rehydration in PBS for 5 minutes, sections were blocked with normal horse serum, washed, incubated with streptavidin-FITC (20 μg/ml) for 30 minutes, washed, and mounted with mounting medium containing propidium iodide (PI).
After fifteen minutes of exposure, the relevant section of tissue was dissected, frozen, sectioned, and stained with Streptavidin fluorescein to define the location of the biotinylated peptide, and propidium iodide to counterstain all the nuclei in the section.

[5] = Blood levels after buccal delivery; format: in vivo, rat; settings: 5 mg/kg in Cremophor EL:ethanol 1:1
From the text: as §1

CC(=O)N[C@@H](CSCC(=O)O[C@@H](C(=O)O[C@H]1C[C@@]2(O)[C@@H](OC(=O)c3ccccc3)[C@@H]3[C@]4(OC(C)=O)CO[C@@H]4C[C@H](O)[C@@]3(C)C(=O)[C@H](OC(C)=O)C(=C1C)C2(C)C)[C@@H](NC(=O)c1ccccc1)c1ccccc1)C(=O)N[C@H](CCCNC(=N)N)C(=O)N[C@H](CCCNC(=N)N)C(=O)N[C@H](CCCNC(=N)N)C(=O)N[C@H](CCCNC(=N)N)C(=O)N[C@H](CCCNC(=N)N)C(=O)N[C@H](CCCNC(=N)N)C(=O)N[C@H](CCCNC(=N)N)C(N)=O [compound 14]
blood levels of taxol [1]: did not result in significant blood levels of taxol within five hours
half-life [2]: 5 h

N=C(N)NCCC[C@@H](NC(=O)[C@@H](CCCNC(=N)N)NC(=O)[C@@H](CCCNC(=N)N)NC(=O)[C@@H](CCCNC(=N)N)NC(=O)[C@@H](CCCNC(=N)N)NC(=O)[C@@H](CCCNC(=N)N)NC(=O)[C@@H](CCCNC(=N)N)NC(=O)[C@@H](CCCNC(=N)N)NC(=O)[C@@H](CCCNC(=N)N)NC(=O)CCCCCNC(=O)CCCC[C@@H]1SC[C@@H]2NC(=O)N[C@@H]21)C(N)=O [bio aca r9 CONH2]
penetration into cheek and tongue [3]: quickly and efficiently penetrated multiple layers of the epithelia
staining of duodenum ([4]; 100 μM injected into lumen, fifteen minutes): no detectable staining over background was observed
staining of ascending and transverse colon ([4]; 100 μM, fifteen minutes): stained all surface areas of the villi, and penetrated several cell layers
staining of ileum ([4]; 100 μM, fifteen minutes): first sign of uniform staining
staining of jejunum ([4]; 100 μM, fifteen minutes): Poor staining
uptake along the GI tract ([4]; mouse, in vivo): uptake increasing with distance from the gastric pylorus

CC(=O)O[C@H]1C(=O)[C@@]2(C)[C@H]([C@H](OC(=O)c3ccccc3)[C@]3(O)C[C@H](OC(=O)[C@H](O)[C@@H](NC(=O)c4ccccc4)c4ccccc4)C(C)=C1C3(C)C)[C@]1(OC(C)=O)CO[C@@H]1C[C@@H]2O [taxol, paclitaxel]
appearance of taxol in blood after buccal administration [5]: appeared in the blood stream by the first time point
